Reference: patent US8324245B2, “Quinoline derivative and quinazoline derivative inhibiting self-phosphorylation of hepatocytus proliferator receptor, and medicinal composition containing the same” (Kyowa Hakko Kirin Co., Ltd., priority 2001, dated 2012)

Target: T1, met (HGF receptor) in human gastric cancer cells MKN45 (Homo sapiens, UniProt P08581)
T1 construct: endogenous in cells; host or cells: MKN45 human gastric cancer cells
Experiment: Inhibitory activity against met-autophosphorylation using ELISA method (2), MKN45 cells, HGF-independent
Assay type: cell-based
Method in brief: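 MKN45 cells, 3×10^4 per well in RPMI with 0.1% FCS overnight, were exposed to compound in DMSO for 1 h at 37 °C without HGF. Lysates were captured on anti-phosphotyrosine (PY20) plates, Met detected with anti-Met and peroxidase secondary antibody, absorbance at 450 nm.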

T1 sequence (P08581 25-1390): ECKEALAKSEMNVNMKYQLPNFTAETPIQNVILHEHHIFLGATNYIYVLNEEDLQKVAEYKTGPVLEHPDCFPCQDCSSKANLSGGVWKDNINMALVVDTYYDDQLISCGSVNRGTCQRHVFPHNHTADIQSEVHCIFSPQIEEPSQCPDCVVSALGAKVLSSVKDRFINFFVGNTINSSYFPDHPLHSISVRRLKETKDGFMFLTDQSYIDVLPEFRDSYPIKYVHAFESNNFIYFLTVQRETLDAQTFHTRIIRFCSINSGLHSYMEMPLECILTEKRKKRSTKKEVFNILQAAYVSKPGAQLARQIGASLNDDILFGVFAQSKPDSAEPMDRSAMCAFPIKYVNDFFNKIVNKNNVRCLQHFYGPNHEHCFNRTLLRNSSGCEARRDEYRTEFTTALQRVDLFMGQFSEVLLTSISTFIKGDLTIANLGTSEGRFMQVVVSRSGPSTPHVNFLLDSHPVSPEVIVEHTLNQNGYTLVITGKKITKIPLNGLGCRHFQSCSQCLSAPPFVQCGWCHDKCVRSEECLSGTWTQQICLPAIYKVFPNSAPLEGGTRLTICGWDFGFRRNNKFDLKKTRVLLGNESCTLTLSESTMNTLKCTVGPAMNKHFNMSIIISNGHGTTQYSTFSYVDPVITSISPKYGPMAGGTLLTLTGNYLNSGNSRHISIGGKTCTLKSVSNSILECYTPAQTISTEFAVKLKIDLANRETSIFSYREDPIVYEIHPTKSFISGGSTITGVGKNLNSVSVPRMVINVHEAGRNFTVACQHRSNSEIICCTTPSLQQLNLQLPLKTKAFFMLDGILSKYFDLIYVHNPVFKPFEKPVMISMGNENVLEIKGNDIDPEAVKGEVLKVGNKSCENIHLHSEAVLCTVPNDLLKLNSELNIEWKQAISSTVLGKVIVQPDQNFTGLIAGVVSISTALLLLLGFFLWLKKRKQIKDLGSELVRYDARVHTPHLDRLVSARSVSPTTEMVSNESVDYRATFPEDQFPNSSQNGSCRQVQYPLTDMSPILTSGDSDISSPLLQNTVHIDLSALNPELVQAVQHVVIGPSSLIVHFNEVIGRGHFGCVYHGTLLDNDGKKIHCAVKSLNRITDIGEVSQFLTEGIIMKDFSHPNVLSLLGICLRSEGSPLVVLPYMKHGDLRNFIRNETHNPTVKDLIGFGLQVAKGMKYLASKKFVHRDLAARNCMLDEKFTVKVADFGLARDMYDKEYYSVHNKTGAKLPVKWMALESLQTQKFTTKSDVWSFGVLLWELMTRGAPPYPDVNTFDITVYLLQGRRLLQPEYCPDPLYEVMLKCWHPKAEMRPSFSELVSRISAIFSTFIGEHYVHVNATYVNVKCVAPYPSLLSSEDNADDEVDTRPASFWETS

| SMILES | IC50 |
| --- | --- |
| COC(=O)c1ccccc1NC(=O)NC(=O)Nc1ccc(Oc2ccnc3cc(OC)c(OC)cc23)cc1 [Example 245, methyl 2-({({[4-(6,7-dimethoxyquinolin-4-yloxy)anilino]carbonyl}amino)carbonyl}amino)benzoate] | 308 nM |
| COc1cc2nccc(Oc3ccc(NC(=O)NC(=O)Nc4cc(C)ccn4)cc3)c2cc1OC [Example 105, N-(4-methyl-2-pyridyl)-({[4-(6,7-dimethoxy-quinolin-4-yloxy)anilino]carbonyl}amino)methanamide] | 104 nM |
| COc1cc2nccc(Oc3ccc(NC(=O)NC(=O)Nc4cccc(C#N)c4)cc3)c2cc1OC [Example 239, N-(3-cyanophenyl)-({[4-(6,7-dimethoxy-quinolin-4-yloxy)anilino]carbonyl}amino)-methanamide] | 1580 nM |
| COc1cc2c(Oc3ccc(NC(=S)NC(=O)Cc4ccccc4)cc3F)ccnc2cc1OCCN1CCOCC1 [Example 276] | 19 nM |
| COc1cc2c(Oc3ccc(NC(=O)NC(=O)Cc4ccccc4)cc3F)ccnc2cc1OCCCN1CCN(C)CC1 [Example 53, 1-(3-fluoro-4-{6-methoxy-7-[3-(4-methyl-piperazin-1-yl)-propoxy]quinolin-4-yloxy}phenyl)-3-phenylacetylurea] | 37.4 nM |
| CCCCOCC(=O)NC(=S)Nc1ccc(Oc2ccnc3cc(OC)c(OC)cc23)c(F)c1 [Example 167, 1-(2-butoxyacetyl)-3-[4-(6,7-dimethoxy-quinolin-4-yloxy)-3-fluorophenyl]thiourea] | 259 nM |
| COc1cc2nccc(Oc3ccc(NC(=O)NC(=O)c4ccccc4C)c(F)c3)c2cc1OC [Example 108, 1-[4-(6,7-dimethoxyquinolin-4-yloxy)-2-fluorophenyl]-3-(2-methyl-benzoyl)urea] | 2080 nM |
| COc1cc2nccc(Oc3ccc(NC(=O)NC(=O)Nc4cccc5cccnc45)cc3)c2cc1OC [Example 260, N-(8-quinolyl)-({[4-(6,7-dimethoxyquinolin-4-yloxy)anilino]carbonyl}amino)methanamide] | 2230 nM |
| COc1cc2nccc(Oc3ccc(NC(=S)NC(=O)Cc4ccc(Cl)cc4)c(F)c3)c2cc1OC [Example 188, 1-[2-(4-chlorophenyl)acetyl]-3-[4-(6,7-dimethoxyquinolin-4-yloxy)-2-fluorophenyl]thiourea] | 252 nM |
| COc1cc2nccc(Oc3ccc(NC(=S)NC(=O)Cc4ccccc4Cl)c(F)c3)c2cc1OC [Example 182, 1-[2-(2-chlorophenyl)acetyl]-3-[4-(6,7-dimethoxyquinolin-4-yloxy)-2-fluorophenyl]thiourea] | 256 nM |
| COc1cc2c(Oc3ccc(NC(=O)NC(=O)Cc4ccccc4)cc3F)ccnc2cc1OCCCCl [Example 14, 1-{4-[7-(3-chloro-propoxy)-6-methoxyquinolin-4-yloxy]-3-fluorophenyl}-3-phenylacetylurea] | 291 nM |
| COc1cc2c(Oc3ccc(NC(=S)NC(=O)Cc4ccccc4F)cc3F)ccnc2cc1OCCN1CCOCC1 [Example 278, 1-{3-Fluoro-4-[6-methoxy-7-(2-morpholin-4-yl-ethoxy)-quinolin-4-yloxy]-phenyl}-3-[2-(2-fluoro-phenyl)-acetyl]-thiourea] | 25.1 nM |
| COc1cc2nccc(Oc3ccc(NC(=O)NC(=O)Nc4ccccc4Oc4ccccc4)cc3)c2cc1OC [Example 255, N-(2-phenoxyphenyl)-({[4-(6,7-dimethoxy-quinolin-4-yloxy)anilino]carbonyl}amino)methanamide] | 260 nM |
| COc1cc2nccc(Oc3ccc(NC(=O)NC(=O)Cc4cccs4)c(F)c3)c2cc1OC [Example 30, 1-[4-(6,7-dimethoxyquinolin-4-yloxy)-2-fluoro-phenyl]-3-(2-thiophen-2-ylacetyl)urea] | 35.1 nM |
| COc1cc2nccc(Oc3ccc(NC(=O)NC(=O)Cc4ccc(F)c(F)c4)c(F)c3)c2cc1OC [Example 140, 1-[2-(3,4-difluorophenyl)acetyl]-3-[4-(6,7-dimethoxyquinolin-4-yloxy)-2-fluorophenyl]urea] | 229 nM |
| COc1cc2nccc(Oc3ccc(NC(=O)C(C)C(=O)NC4CCCCC4)cc3)c2cc1OC (stereo not shown) [Example 226, N-cyclohexyl-N′-[4-(6,7-dimethoxyquinolin-4-yloxy)phenyl]-2-methylmalonamide] | 3230 nM |
| COc1cc2nccc(Oc3ccc(NC(=S)NC(=O)Cc4ccccc4)c(Cl)c3)c2cc1OC [Example 65, 1-[2-chloro-4-(6,7-dimethoxyquinolin-4-yloxy)-phenyl]-3-phenylacetylthiourea] | 66.3 nM |
| COc1cc2c(Oc3ccc(NC(=S)NC(=O)Cc4ccc(Cl)cc4)cc3F)ccnc2cc1OCC(O)CN1CCCCC1 (stereo not shown) [Example 327, 1-[2-(4-Chloro-phenyl)-acetyl]-3-{3-fluoro-4-[7-(2-hydroxy-3-piperidin-1-yl-propoxy)-6-methoxy-quinolin-4-yloxy]-phenyl}-thiourea] | 798 nM |
| COc1cc2c(Oc3ccc(NC(=O)NC(=O)Cc4ccc(F)cc4)c(F)c3)ccnc2cc1OCCCN1CCN(C)CC1 [Example 51, 1-(2-fluoro-4-{6-methoxy-7-[3-(4-methyl-piperazin-1-yl)-propoxy]quinolin-4-yloxy}phenyl)-3-[2-(4-fluorophenyl)acetyl]urea] | 203 nM |

| SMILES | IC50 |
| --- | --- |
| COc1cc2nccc(Oc3ccc(NC(=O)CC(=O)NC4CCCCCC4)cc3)c2cc1OC [Example 101, N-cycloheptyl-N′-[4-(6,7-dimethoxyquinolin-4-yloxy)phenyl]malonamide] | 44.4 nM |
| COc1cc2c(Oc3ccc(NC(=S)NC(=O)Cc4ccccc4)cc3F)ccnc2cc1OCCCN1CCC(CO)CC1 [Example 309, 1-(3-Fluoro-4-{7-[3-(4-hydroxymethyl-piperidin-1-yl)-propoxy]-6-methoxy-quinolin-4-yloxy}-phenyl)-3-phenylacetyl-thiourea] | 20.1 nM |
| COc1cc2nccc(Oc3ccc(NC(=O)NC(=O)Nc4cccc(C)c4)cc3)c2cc1OC [Example 256, N-(3-methylphenyl)-({[4-(6,7-dimethoxy-quinolin-4-yloxy)anilino]carbonyl}amino)methanamide] | 281 nM |
| CCN(CC)CCCOc1cc2nccc(Oc3ccc(NC(=O)NC(=O)Cc4ccccc4)cc3F)c2cc1OC [Example 291, 1-{4-[7-(3-Diethylamino-propoxy)-6-methoxy-quinolin-4-yloxy]-3-fluoro-phenyl}-3-phenylacetyl-urea] | 19.5 nM |
| COc1cc2nccc(Oc3ccc(NC(=O)NC(=O)Nc4cccc5ncccc45)cc3)c2cc1OC [Example 262, N-(5-quinolyl)-({[4-(6,7-dimethoxyquinolin-4-yloxy)anilino]carbonyl}amino)methanamide] | 269 nM |
| COc1cc2c(Oc3ccc(NC(=O)NC(=O)Cc4ccccc4)cc3F)ccnc2cc1OCCCN1CCCCC1 [Example 52, 1-{3-fluoro-4-[6-methoxy-7-(3-piperidin-1-yl-propoxy)quinolin-4-yloxy]phenyl}-3-phenylacetylurea] | 171 nM |
| COc1cc(Oc2ccnc3cc(OC)c(OC)cc23)ccc1NC(=O)NC(=O)Cc1ccc(F)cc1 [Example 38, 1-[4-(6,7-dimethoxyquinolin-4-yloxy)-2-methoxyphenyl]-3-[2-(4-fluorophenyl)acetyl]urea] | 29.1 nM |
| COc1cc2nccc(Oc3ccc(NC(=S)NC(=O)Cc4ccccc4C)cc3Cl)c2cc1OC [Example 149, 1-[3-chloro-4-(6,7-dimethoxyquinolin-4-yloxy)phenyl]-3-(2-o-tolylacetyl)thiourea] | 236 nM |
| COc1cc2nccc(Oc3ccc(NC(=O)NC(=O)Cc4ccsc4)c(F)c3)c2cc1OC [Example 19, 1-[4-(6,7-dimethoxyquinolin-4-yloxy)-2-fluoro-phenyl]-3-(2-thiophen-3-ylacetyl)urea] | 104 nM |
| COc1cc2nccc(Oc3ccc(NC(=O)NC(=O)Cc4ccccc4F)cc3Cl)c2cc1OC [Example 28, 1-[3-chloro-4-(6,7-dimethoxyquinolin-4-yloxy)-phenyl]-3-[2-(2-fluorophenyl)acetyl]urea] | 162 nM |
| COc1cccc(CC(=O)NC(=S)Nc2ccc(Oc3ccnc4cc(OC)c(OC)cc34)c(F)c2)c1 [Example 181, 1-[4-(6,7-dimethoxyquinolin-4-yloxy)-3-fluorophenyl]-3-[2-(3-methoxyphenyl)acetyl]thiourea] | 243 nM |
| COc1cc2nccc(Oc3ccc(NC(=O)NC(=O)Nc4ccccc4SC)cc3)c2cc1OC [Example 253, N-[2-(methylsulfanyl)phenyl]-({[4-(6,7-dimethoxyquinolin-4-yloxy)anilino]carbonyl}amino)-methanamide] | 1340 nM |
| COc1cc2nccc(Oc3ccc(NC(=O)NC(=O)Cc4ccccc4F)c(F)c3)c2cc1OC [Example 26, 1-[4-(6,7-dimethoxyquinolin-4-yloxy)-2-fluoro-phenyl]-3-[2-(2-fluorophenyl)acetyl]urea] | 126 nM |
| COc1cc2nccc(Oc3ccc(NC(=O)NC(=O)Cc4ccc(F)cc4)cc3Cl)c2cc1OC [Example 24, 1-[3-chloro-4-(6,7-dimethoxyquinolin-4-yloxy)phenyl]-3-[2-(4-fluorophenyl)acetyl]urea] | 27.7 nM |
| COc1cc2nccc(Oc3ccc(NC(=O)CC(=O)NCc4ccccc4)cc3)c2cc1OC [Example 215, N-benzyl-N′-[4-(6,7-dimethoxyquinolin-4-yloxy)phenyl]malonamide] | 1980 nM |
| COc1cc2nccc(Oc3ccc(NC(=O)NC(=O)Cc4c(F)cccc4F)c(F)c3)c2cc1OC [Example 134, 1-[2-(2,6-difluorophenyl)acetyl]-3-[4-(6,7-dimethoxyquinolin-4-yloxy)-2-fluorophenyl]urea] | 232 nM |
| COC(=O)c1cccc(NC(=O)CC(=O)Nc2ccc(Oc3ccnc4cc(OC)c(OC)cc34)cc2)c1 [Example 213, methyl 3-{2-[4-(6,7-dimethoxyquinolin-4-yloxy)phenylcarbamoyl]acetylamino}benzoate] | 2430 nM |
| COc1cc2nccc(Oc3ccc(NC(=S)NC(=O)Cc4ccccc4F)cc3F)c2cc1OC [Example 81, 1-[4-(6,7-dimethoxyquinolin-4-yloxy)-3-fluoro-phenyl]-3-[2-(2-fluorophenyl)acetyl]thiourea] | 27.7 nM |
